In ChEMBL document CHEMBL4840352 (J Med Chem, 2021):

How the values were obtained:
MOLM-13 = test: Antiproliferative activity against human MOLM-13 cells incubated for 48 hrs by CCK-8 assay; type: functional, cell-based; conditions: MOLM-13, 48 h
MV4-11 = test: Antiproliferative activity against human MV4-11 cells incubated for 48 hrs by CCK-8 assay; type: functional, cell-based; conditions: MV4-11, 48 h

IC50 (MOLM-13) [nM]	IC50 (MV4-11) [nM]	SMILES
> 1000	> 1000	Nc1c(-c2nc3cc(N4CCN(CCCCCCCC(=O)Nc5cccc6c5C(=O)N(C5CCC(=O)NC5=O)C6=O)CC4)ccc3[nH]2)c(=O)[nH]c2cccc(F)c12 (stereo unspecified)
> 1000	726	Nc1c(-c2nc3cc(N4CCN(CCCCC(=O)Nc5cccc6c5C(=O)N(C5CCC(=O)NC5=O)C6=O)CC4)ccc3[nH]2)c(=O)[nH]c2cccc(F)c12 (stereo unspecified)
> 1000	> 1000	Nc1c(-c2nc3cc(N4CCN(CCC(=O)Nc5cccc6c5C(=O)N(C5CCC(=O)NC5=O)C6=O)CC4)ccc3[nH]2)c(=O)[nH]c2cccc(F)c12 (stereo unspecified)
306	635	Nc1c(-c2nc3cc(N4CCN(C(=O)CCCCC#Cc5cccc6c5C(=O)N(C5CCC(=O)NC5=O)C6=O)CC4)ccc3[nH]2)c(=O)[nH]c2cccc(F)c12 (stereo unspecified)

The next lines start with the compound.

SMILES	IC50 (MOLM-13) [nM]	IC50 (MV4-11) [nM]
Nc1c(-c2nc3cc(N4CCN(CCCCCC(=O)Nc5cccc6c5CN(C5CCC(=O)NC5=O)C6=O)CC4)ccc3[nH]2)c(=O)[nH]c2cccc(F)c12 (stereo unspecified)	> 1000	> 1000
Nc1c(-c2nc3cc(N4CCN(CCCCCCC(=O)Nc5cccc6c5CN(C5CCC(=O)NC5=O)C6=O)CC4)ccc3[nH]2)c(=O)[nH]c2cccc(F)c12 (stereo unspecified)	> 1000	> 1000
Nc1c(-c2nc3cc(N4CCN(CCCCCC(=O)Nc5cccc6c5C(=O)N(C5CCC(=O)NC5=O)C6=O)CC4)ccc3[nH]2)c(=O)[nH]c2cccc(F)c12 (stereo unspecified)	> 1000	557
Nc1c(-c2nc3cc(N4CCN(C(=O)CCCCCCNc5cccc6c5C(=O)N(C5CCC(=O)NC5=O)C6=O)CC4)ccc3[nH]2)c(=O)[nH]c2cccc(F)c12 (stereo unspecified)	130	416
